{"source": "ChEMBL document CHEMBL1129061", "about": "“Inhibition of human glutathione reductase by 10-arylisoalloxazines: crystalline, kinetic, and electrochemical studies” (J Med Chem, 1996)", "data": [{"target": "T1, Glutathione reductase, mitochondrial (Homo sapiens, UniProt P00390)", "T1 sequence (P00390 whole entry)": "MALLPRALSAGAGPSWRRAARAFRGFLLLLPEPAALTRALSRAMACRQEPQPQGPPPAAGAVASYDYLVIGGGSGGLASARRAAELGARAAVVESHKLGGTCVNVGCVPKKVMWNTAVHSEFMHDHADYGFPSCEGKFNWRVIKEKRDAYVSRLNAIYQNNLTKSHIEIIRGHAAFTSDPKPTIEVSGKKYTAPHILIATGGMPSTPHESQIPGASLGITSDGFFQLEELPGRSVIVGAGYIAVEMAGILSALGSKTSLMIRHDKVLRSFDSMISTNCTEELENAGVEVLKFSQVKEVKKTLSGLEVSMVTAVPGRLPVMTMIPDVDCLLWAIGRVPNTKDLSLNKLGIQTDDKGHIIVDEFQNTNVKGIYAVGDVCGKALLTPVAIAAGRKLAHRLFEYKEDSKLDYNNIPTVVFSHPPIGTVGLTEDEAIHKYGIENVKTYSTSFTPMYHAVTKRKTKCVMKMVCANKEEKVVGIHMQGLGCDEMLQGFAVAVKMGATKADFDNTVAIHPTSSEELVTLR", "test": "Inhibitory activity against human glutathione reductase in presence of 100 uM GSSG", "units": {"IC50": "µM"}, "values": [{"smiles": "O=c1nc2n(-c3c(F)c(F)c(F)c(F)c3F)c3ccccc3nc-2c(=O)[nH]1", "IC50": 3.5}, {"smiles": "O=c1nc2n(-c3cc(C(F)(F)F)cc(C(F)(F)F)c3)c3ccccc3nc-2c(=O)[nH]1", "IC50": 3.5}, {"smiles": "CCOC(=O)Cn1c(=O)nc2n(-c3cc(Cl)cc(Cl)c3)c3ccccc3nc-2c1=O", "IC50": 7}, {"smiles": "Cn1c(=O)nc2n(-c3cccc(C(F)(F)F)c3)c3ccccc3nc-2c1=O", "IC50": 1}, {"smiles": "O=c1nc2n(-c3cccc(C(F)(F)F)c3)c3ccccc3nc-2c(=O)[nH]1", "IC50": 1}, {"smiles": "Cn1c(=O)nc2n(-c3cc(C(F)(F)F)cc(C(F)(F)F)c3)c3ccccc3nc-2c1=O", "IC50": 5}, {"smiles": "Cn1c(=O)nc2n(-c3c(F)c(F)c(F)c(F)c3F)c3ccccc3nc-2c1=O", "IC50": "< 1"}, {"smiles": "O=C(O)Cn1c(=O)nc2n(-c3cccc(C(F)(F)F)c3)c3ccccc3nc-2c1=O", "IC50": 20}, {"smiles": "CCOC(=O)Cn1c(=O)nc2n(-c3cccc(C(F)(F)F)c3)c3ccccc3nc-2c1=O", "IC50": 8}, {"smiles": "O=C(O)Cn1c(=O)nc2n(-c3cc(C(F)(F)F)cc(C(F)(F)F)c3)c3ccccc3nc-2c1=O", "IC50": 25}, {"smiles": "CCOC(=O)Cn1c(=O)nc2n(-c3ccc(Cl)cc3)c3ccccc3nc-2c1=O", "IC50": 18}, {"smiles": "Cn1c(=O)nc2n(-c3ccc(Cl)cc3)c3ccccc3nc-2c1=O", "IC50": "< 1"}, {"smiles": "O=c1nc2n(-c3ccc(Cl)cc3)c3ccccc3nc-2c(=O)[nH]1", "IC50": "< 1"}, {"smiles": "Cn1c(=O)nc2n(-c3ccc(Cl)cc3)c3cc(N=[N+]=[N-])ccc3nc-2c1=O", "IC50": 2.5}, {"smiles": "CCOC(=O)Cn1c(=O)nc2n(-c3cc(C(F)(F)F)cc(C(F)(F)F)c3)c3ccccc3nc-2c1=O", "IC50": 100}, {"smiles": "O=c1nc2n(-c3cc(Cl)cc(Cl)c3)c3ccccc3nc-2c(=O)[nH]1", "IC50": "< 1"}, {"smiles": "Cn1c(=O)nc2n(-c3cccc4cc5ccccc5cc34)c3ccccc3nc-2c1=O", "IC50": 4}, {"smiles": "Cn1c(=O)nc2n(-c3ccccc3)c3ccccc3nc-2c1=O", "IC50": 2}, {"smiles": "O=C(O)Cn1c(=O)nc2n(-c3ccc(Cl)cc3)c3ccccc3nc-2c1=O", "IC50": 12}, {"smiles": "O=C(O)Cn1c(=O)nc2n(-c3cc(Cl)cc(Cl)c3)c3ccccc3nc-2c1=O", "IC50": 14}, {"smiles": "Cn1c(=O)nc2n(-c3cccc4ccccc34)c3ccccc3nc-2c1=O", "IC50": 2}, {"smiles": "Cn1c(=O)nc2n(-c3cc[n+](C)cc3)c3ccccc3nc-2c1=O", "IC50": 40}, {"smiles": "Cn1c(=O)nc2n(-c3cc(Cl)cc(Cl)c3)c3ccccc3nc-2c1=O", "IC50": "< 1"}, {"smiles": "Cn1c(=O)nc2n(-c3cccnc3)c3ccccc3nc-2c1=O", "IC50": 8}, {"smiles": "Cn1c(=O)nc2n(-c3ccc(Cl)cc3)c3cc(F)ccc3nc-2c1=O", "IC50": 1}, {"smiles": "Cn1c(=O)nc2n(-c3ccncc3)c3ccccc3nc-2c1=O", "IC50": 3}]}]}
